Results as given in ChEMBL document CHEMBL5241119, “Hydroxypyrone derivatives in drug discovery: from chelation therapy to rational design of metalloenzyme inhibitors” (RSC Med Chem, 2022).

Key:
[1] = biological target: T1, Macrophage metalloelastase (Homo sapiens, UniProt P39900); assay: Inhibition of human MMP-12 relative to control; design: concentration or dose not given beside the values; settings: concentration not given here
Target sequence in this assay (P39900 106-470 limits assumed): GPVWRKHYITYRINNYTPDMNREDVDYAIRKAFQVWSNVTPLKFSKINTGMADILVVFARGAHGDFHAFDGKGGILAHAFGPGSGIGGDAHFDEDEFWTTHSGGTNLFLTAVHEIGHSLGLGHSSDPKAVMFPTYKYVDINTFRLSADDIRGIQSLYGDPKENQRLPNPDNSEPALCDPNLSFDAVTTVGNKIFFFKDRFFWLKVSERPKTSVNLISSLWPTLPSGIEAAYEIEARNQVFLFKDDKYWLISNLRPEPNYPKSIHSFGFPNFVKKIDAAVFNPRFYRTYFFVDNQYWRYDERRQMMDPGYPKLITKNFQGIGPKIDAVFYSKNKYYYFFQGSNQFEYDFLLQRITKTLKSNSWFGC

[2] = biological target: Polymerase acidic protein (Influenza A virus (A/Puerto Rico/8/1934(H1N1))) (UniProt P03433); assay: Inhibition of Influenza A virus N-terminal domain of PA endonuclease relative to control; settings: concentration not given here
[3] = Inhibition of NDM-1 (unknown origin) relative to control; design: concentration or dose not given beside the values; settings: Bacteria; concentration not given here
Acetylcholinesterase = Acetylcholinesterase (Electrophorus electricus, UniProt O42275); assay: Inhibition of Electrophorus electricus AChE
Sequence of Acetylcholinesterase (O42275 whole entry): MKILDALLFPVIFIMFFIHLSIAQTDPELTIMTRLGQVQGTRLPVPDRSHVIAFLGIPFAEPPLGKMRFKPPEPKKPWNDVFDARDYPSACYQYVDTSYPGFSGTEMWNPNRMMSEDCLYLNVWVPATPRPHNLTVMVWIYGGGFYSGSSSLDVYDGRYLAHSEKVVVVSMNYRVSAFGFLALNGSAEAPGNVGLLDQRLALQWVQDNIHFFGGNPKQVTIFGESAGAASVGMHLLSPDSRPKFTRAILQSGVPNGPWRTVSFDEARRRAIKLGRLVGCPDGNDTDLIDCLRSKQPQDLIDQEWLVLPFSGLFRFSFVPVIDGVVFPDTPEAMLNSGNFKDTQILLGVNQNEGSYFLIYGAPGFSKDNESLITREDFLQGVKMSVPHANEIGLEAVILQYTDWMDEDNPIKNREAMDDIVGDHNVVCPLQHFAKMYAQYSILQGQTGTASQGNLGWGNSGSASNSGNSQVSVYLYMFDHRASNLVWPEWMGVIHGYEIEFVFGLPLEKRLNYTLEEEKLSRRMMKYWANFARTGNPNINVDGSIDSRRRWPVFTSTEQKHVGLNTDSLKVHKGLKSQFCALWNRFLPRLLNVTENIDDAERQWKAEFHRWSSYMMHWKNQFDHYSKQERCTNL

Mushroom tyrosinase [4] = biological target: T2, Mushroom tyrosinase (Agaricus bisporus, UniProt O42713+Q00024+C7FF04+C7FF05); assay: Inhibition of mushroom monophenolase
Mushroom tyrosinase [5] = biological target: T2, Mushroom tyrosinase; assay: Inhibition of mushroom diphenolase
Interstitial collagenase = biological target: T3, Interstitial collagenase (Homo sapiens, UniProt P03956); assay: Inhibition of human MMP-1
T3 sequence (P03956 whole entry): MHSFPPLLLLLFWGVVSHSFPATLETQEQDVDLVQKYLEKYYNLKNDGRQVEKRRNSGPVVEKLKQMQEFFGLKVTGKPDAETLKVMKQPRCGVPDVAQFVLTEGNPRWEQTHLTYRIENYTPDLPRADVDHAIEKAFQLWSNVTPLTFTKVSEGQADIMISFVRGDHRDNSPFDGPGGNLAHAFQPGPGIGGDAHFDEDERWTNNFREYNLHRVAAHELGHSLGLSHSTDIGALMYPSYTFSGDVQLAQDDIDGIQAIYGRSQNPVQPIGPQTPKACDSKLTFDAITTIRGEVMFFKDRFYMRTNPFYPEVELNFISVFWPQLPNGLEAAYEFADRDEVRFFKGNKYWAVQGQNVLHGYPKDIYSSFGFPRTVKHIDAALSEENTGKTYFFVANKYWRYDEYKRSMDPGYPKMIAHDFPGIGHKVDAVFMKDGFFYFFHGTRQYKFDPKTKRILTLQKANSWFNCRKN

Matrilysin = biological target: T4, Matrilysin (Homo sapiens, UniProt P09237); assay: Inhibition of human MMP-7
T4 sequence (P09237 whole entry): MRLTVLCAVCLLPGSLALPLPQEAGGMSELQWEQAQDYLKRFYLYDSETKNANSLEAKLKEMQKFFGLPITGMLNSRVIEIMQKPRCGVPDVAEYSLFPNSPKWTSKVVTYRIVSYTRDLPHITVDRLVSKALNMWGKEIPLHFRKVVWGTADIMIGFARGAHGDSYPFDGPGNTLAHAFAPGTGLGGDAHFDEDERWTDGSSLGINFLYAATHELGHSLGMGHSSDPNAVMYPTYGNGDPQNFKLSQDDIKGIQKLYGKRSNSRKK

[6] = biological target: T5, Matrix metalloproteinase-9 (Homo sapiens, UniProt P14780); assay: Inhibition of human MMP-9
T5 sequence (P14780 whole entry): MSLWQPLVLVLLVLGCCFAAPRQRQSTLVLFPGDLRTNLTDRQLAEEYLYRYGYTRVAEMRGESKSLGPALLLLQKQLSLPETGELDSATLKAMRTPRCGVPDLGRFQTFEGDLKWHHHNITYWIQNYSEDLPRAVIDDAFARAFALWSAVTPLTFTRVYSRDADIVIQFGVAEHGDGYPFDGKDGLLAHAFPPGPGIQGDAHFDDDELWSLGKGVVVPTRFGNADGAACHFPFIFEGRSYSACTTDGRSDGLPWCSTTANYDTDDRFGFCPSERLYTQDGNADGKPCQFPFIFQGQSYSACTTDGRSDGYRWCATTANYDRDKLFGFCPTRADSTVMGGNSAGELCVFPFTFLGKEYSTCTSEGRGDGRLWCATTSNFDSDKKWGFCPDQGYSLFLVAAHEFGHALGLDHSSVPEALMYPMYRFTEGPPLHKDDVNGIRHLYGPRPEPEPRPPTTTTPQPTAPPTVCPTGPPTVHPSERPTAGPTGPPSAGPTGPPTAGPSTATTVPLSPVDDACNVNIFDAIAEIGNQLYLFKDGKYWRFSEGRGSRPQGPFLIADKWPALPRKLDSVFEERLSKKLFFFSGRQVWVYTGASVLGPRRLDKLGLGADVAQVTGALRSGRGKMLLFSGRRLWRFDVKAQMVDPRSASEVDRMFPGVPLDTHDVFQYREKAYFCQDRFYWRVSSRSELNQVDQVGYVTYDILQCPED

Collagenase 3 = Collagenase 3 (Homo sapiens, UniProt P45452); assay: Inhibition of human MMP-13
Neutrophil collagenase [7] = biological target: T6, Neutrophil collagenase (Homo sapiens, UniProt P22894); assay: Inhibition of human MMP-8
Target sequence in this assay (P22894 whole entry): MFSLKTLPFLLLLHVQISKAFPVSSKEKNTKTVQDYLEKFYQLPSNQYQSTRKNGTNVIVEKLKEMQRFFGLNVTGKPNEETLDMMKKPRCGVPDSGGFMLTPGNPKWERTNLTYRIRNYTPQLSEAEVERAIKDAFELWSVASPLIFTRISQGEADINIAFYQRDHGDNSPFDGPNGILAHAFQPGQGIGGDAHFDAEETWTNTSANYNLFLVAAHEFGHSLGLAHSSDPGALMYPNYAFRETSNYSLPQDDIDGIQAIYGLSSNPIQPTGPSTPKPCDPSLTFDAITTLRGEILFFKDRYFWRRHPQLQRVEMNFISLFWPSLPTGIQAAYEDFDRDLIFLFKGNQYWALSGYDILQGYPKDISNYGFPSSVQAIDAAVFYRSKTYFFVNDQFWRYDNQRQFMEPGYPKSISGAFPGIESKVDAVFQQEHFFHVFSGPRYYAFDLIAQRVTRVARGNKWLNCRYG

[8] = biological target: T1, Macrophage metalloelastase; assay: Inhibition of human MMP-12
Target sequence in this assay (P39900 whole entry, the tested form may be a part): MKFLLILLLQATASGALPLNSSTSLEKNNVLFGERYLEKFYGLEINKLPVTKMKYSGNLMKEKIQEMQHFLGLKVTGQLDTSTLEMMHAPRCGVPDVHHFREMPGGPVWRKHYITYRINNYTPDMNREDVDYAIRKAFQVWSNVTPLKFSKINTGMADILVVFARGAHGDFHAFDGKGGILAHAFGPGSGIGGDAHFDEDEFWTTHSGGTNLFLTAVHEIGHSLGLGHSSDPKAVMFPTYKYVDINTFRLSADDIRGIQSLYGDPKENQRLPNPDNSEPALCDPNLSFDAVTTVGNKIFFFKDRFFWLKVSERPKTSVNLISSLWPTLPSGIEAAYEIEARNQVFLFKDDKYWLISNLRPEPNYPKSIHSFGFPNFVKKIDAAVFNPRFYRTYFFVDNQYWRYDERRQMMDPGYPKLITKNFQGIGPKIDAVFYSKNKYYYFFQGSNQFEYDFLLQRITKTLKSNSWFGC

Stromelysin-1 [9] = biological target: T7, Stromelysin-1 (Homo sapiens, UniProt P08254); assay: Inhibition of human MMP-3
Target sequence in this assay (P08254 whole entry): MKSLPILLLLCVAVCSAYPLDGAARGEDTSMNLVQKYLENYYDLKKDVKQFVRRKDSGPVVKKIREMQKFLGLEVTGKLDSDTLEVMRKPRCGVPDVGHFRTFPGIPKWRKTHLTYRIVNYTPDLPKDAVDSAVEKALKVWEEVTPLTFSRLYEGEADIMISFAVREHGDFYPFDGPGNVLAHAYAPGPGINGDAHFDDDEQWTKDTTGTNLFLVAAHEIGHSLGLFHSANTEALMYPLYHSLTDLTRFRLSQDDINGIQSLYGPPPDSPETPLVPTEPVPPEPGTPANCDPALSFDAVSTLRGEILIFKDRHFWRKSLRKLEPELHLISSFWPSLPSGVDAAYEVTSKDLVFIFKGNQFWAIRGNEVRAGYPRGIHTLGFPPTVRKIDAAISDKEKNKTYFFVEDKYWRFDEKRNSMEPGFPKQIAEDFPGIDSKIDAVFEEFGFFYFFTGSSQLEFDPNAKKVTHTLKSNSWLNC

Mushroom tyrosinase [10] = biological target: T2, Mushroom tyrosinase; assay: Inhibition of mushroom monophenolase activity by Lineweaver-burk reciprocal plot analysis
[11] = biological target: T8, Mushroom tyrosinase (Agaricus bisporus) (UniProt O42713+Q00024+C7FF04+C7FF05); assay: Inhibition of mushroom monophenolase activity using L-DOPA as substrate preincubated with substrate followed by compound addition by Lineweaver-burk reciprocal plot analysis
Mushroom tyrosinase [12] = biological target: T2, Mushroom tyrosinase; assay: Inhibition of mushroom Diphenolase activity by Lineweaver-burk reciprocal plot analysis
[13] = biological target: T8, Mushroom tyrosinase (Agaricus bisporus); assay: Inhibition of mushroom Diphenolase activity using L-DOPA as substrate preincubated with substrate followed by compound addition by Lineweaver-burk reciprocal plot analysis
[14] = Inhibition of Pseudomonas aeruginosa Metallo-beta-lactamase VIM-2
Pseudomonas aeruginosa = assay: Inhibition of Pseudomonas aeruginosa Metallo-beta-lactamase VIM-2 at 50 uM relative to control
[15] = Therapeutic index, ratio of CC50 for HEK293 cells to EC50 for Escherichia coli expressing VIM-2; format: toxicity; settings: human, read-out: Ratio CC50/EC50
[16] = biological target: Amine oxidase [flavin-containing] B (Homo sapiens, UniProt P27338); assay: Inhibition of human MAO-B
Sequence of Amine oxidase [flavin-containing] B (P27338 whole entry): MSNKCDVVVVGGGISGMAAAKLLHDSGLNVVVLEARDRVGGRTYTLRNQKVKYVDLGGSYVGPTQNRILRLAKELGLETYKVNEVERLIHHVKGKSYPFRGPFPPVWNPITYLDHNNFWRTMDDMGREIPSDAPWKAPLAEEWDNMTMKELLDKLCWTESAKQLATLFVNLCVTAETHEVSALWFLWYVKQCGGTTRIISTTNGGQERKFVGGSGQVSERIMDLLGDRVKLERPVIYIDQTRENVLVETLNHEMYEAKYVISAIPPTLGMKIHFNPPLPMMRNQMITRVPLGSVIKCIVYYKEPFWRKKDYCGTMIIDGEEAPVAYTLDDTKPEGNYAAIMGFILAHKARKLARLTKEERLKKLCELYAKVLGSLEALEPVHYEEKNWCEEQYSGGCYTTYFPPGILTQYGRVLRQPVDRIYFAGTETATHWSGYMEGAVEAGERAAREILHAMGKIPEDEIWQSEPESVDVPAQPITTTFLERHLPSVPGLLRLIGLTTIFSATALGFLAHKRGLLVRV

[17] = biological target: Amyloid-beta precursor protein (Homo sapiens) (UniProt P05067); assay: Inhibition of amyloid beta (1 to 42 ) (unknown origin) self aggregation at 100 uM relative to control
SH-SY5Y = assay: Protection against amyloid beta (1 to 42) induced toxicity in human SH-SY5Y cells assessed as increase in cell viability; format: functional
[18] = biological target: T5, Matrix metalloproteinase-9; assay: Inhibition of human MMP-9 at 100 uM relative to control
Glycine max = assay: Inhibition of soybean 5-LOX relative to control
[19] = Antioxidant activity assessed as DPPH radical scavenging activity; format: functional
Rattus norvegicus [20] = organism: Rattus norvegicus; assay: Cardioprotective activity in myocardial ischemia/reperfusion induced Sprague-Dawley rat injury model assessed as recovery of contractile function; format: functional
Rattus norvegicus [21] = organism: Rattus norvegicus; assay: Cardioprotective activity in myocardial ischemia/reperfusion induced Sprague-Dawley rat injury model assessed as improved RPP; format: functional
Rattus norvegicus [22] = organism: Rattus norvegicus; assay: Cardioprotective activity in myocardial ischemia/reperfusion induced Sprague-Dawley rat injury model assessed as improved coronary flow rate; format: functional
Rattus norvegicus [23] = organism: Rattus norvegicus; assay: Cardioprotective activity in myocardial ischemia/reperfusion induced Sprague-Dawley rat injury model assessed as reduction in muscle damage; format: functional; design: scale not given: the % may be the effect or the level left
Rattus norvegicus [24] = organism: Rattus norvegicus; assay: Cardioprotective activity in myocardial ischemia/reperfusion induced Sprague-Dawley rat injury model assessed as reduction in fibrillar collagen damage; format: functional; design: scale not given: the % may be the effect or the level left
Lethal factor = Lethal factor (Bacillus anthracis, UniProt P15917); assay: Inhibition of anthrax lethal factor
Sequence of Lethal factor (P15917 whole entry): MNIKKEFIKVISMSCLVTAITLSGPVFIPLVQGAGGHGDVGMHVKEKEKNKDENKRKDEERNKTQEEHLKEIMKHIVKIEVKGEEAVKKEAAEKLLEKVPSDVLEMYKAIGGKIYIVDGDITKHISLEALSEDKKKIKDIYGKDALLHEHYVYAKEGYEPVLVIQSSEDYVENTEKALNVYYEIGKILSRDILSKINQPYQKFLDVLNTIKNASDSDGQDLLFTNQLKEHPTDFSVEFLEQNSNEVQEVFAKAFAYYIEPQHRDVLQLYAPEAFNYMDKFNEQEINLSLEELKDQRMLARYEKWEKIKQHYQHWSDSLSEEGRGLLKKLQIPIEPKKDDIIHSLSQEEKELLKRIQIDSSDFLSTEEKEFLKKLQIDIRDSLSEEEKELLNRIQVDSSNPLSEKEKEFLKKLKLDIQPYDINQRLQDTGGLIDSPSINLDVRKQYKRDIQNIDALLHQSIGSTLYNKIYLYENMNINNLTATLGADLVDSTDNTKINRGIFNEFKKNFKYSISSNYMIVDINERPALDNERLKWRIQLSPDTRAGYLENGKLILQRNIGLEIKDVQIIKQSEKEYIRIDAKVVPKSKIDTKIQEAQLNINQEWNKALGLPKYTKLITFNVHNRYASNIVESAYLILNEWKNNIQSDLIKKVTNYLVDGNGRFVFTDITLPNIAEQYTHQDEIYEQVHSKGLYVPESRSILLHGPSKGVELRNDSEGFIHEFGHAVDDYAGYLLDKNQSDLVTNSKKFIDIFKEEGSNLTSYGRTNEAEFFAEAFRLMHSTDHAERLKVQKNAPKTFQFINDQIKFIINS

[25] = biological target: 72 kDa type IV collagenase (Homo sapiens, UniProt P08253); assay: Inhibition of MMP-2 (unknown origin)
Stromelysin-1 [26] = biological target: T7, Stromelysin-1; assay: Inhibition of MMP-3 (unknown origin)
Target sequence in this assay (P08254 whole entry): as the sequence (P08254 whole entry) above

[27] = biological target: T5, Matrix metalloproteinase-9; assay: Inhibition of MMP-9 (unknown origin)
Stromelysin-1 [28] = biological target: T7, Stromelysin-1; assay: Inhibition of MMP-3 (unknown origin) by fluorescence based assay
Target sequence in this assay (P08254 whole entry): as above

Stromelysin-1 [29] = biological target: T7, Stromelysin-1; assay: Inhibition of MMP-3 (unknown origin) by Colorimetric assay
Target sequence in this assay (P08254 whole entry): as above

[30] = biological target: Interstitial collagenase (Homo sapiens) (UniProt P03956); assay: Inhibition of human MMP-1 at 100 uM relative to control
Stromelysin-1 [31] = biological target: T7, Stromelysin-1; assay: Inhibition of human MMP-3 at 100 uM relative to control
Neutrophil collagenase [32] = biological target: T6, Neutrophil collagenase; assay: Inhibition of beta-glucosidase activated MMP-8 (unknown origin) relative to control; settings: concentration not given here
Target sequence in this assay (P22894 101-467 limits assumed): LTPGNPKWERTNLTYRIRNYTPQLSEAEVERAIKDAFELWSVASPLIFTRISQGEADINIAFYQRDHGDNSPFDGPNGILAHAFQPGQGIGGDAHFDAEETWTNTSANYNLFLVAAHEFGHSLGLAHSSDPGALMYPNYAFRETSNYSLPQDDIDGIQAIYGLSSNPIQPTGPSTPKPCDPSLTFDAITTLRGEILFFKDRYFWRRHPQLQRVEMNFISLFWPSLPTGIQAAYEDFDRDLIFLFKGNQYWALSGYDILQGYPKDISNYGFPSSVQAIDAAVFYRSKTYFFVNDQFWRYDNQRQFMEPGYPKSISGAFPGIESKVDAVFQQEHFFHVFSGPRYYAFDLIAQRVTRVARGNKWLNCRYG

[33] = biological target: T5, Matrix metalloproteinase-9; assay: Inhibition of beta-glucosidase activated MMP-9 (unknown origin) relative to control; settings: concentration not given here

Oc1coc2ccccc2c1=S
inhibition [1]: 93%
inhibition [2]: > 90%

On1ccc2[nH]cnc2c1=S
inhibition [3]: 90%

Cc1c(OCc2ccccc2)c(=O)ccn1-c1ccc(CC(=O)Nc2ccc(Cc3nc4ccccc4s3)cc2)cc1
IC50 (Acetylcholinesterase): 14.7 µM

Cn1cc(O)c(=O)cc1/C=C/C(=O)c1ccc(F)cc1
IC50 (Mushroom tyrosinase [4]): 3.07 µM
IC50 (Mushroom tyrosinase [5]): 17.05 µM

CCCCCCCCn1cc(O)c(=O)cc1COC(=O)[C@H](N)Cc1ccccc1
IC50 (Mushroom tyrosinase [4]): 12.6 µM
IC50 (Mushroom tyrosinase [5]): 4.01 µM

Oc1coccc1=S
inhibition [1]: 93%
inhibition [3]: 90%
inhibition [2]: > 90%

COc1ccc(C(=O)/C=C/c2cc(=O)c(O)c[nH]2)cc1OC
IC50 (Mushroom tyrosinase [4]): 2.75 µM
IC50 (Mushroom tyrosinase [5]): 19.3 µM

O=C(NCc1ccc(-c2ccccc2)cc1)c1occc(=O)c1O
IC50 (Interstitial collagenase): 25 µM
IC50 (Matrilysin): 25 µM
IC50 [6]: 25 µM
IC50 (Collagenase 3): 4 µM
IC50 (Neutrophil collagenase [7]): 0.018 µM
IC50 [8]: 0.018 µM
IC50 (Stromelysin-1 [9]): 0.077 µM

CCCCCCCCO/N=C/c1cc(=O)c(O)c[nH]1
IC50 (Mushroom tyrosinase [4]): 1.6 µM
IC50 (Mushroom tyrosinase [5]): 7.99 µM
Ki (Mushroom tyrosinase [10]): 32.54 µM
Kis [11]: 21.3 µM
Ki (Mushroom tyrosinase [12]): 32.54 µM
Kis [13]: 21.3 µM

O=C(O)c1cccc(=S)n1O
Ki [14]: 0.013 µM
inhibition (Pseudomonas aeruginosa): 98%
selectivity ratio [15]: 8800

Cc1cc(=O)c(O)c(CO)n1CCn1cc(COc2ccc3ccc(=O)oc3c2)nn1
IC50 [16]: 0.68 µM

Cc1c(O)c(=S)ccn1C
inhibition [3]: 90%

S=c1cc[nH]c2[nH]cnc12
inhibition [3]: 90%

Cc1cc(=O)c(O)c(C(=O)NCc2ccc(-c3ccccc3)cc2)n1C
IC50 (Interstitial collagenase): 25 µM
IC50 (Matrilysin): 25 µM
IC50 [6]: 25 µM
IC50 (Collagenase 3): 4 µM
IC50 (Neutrophil collagenase [7]): 1.2 µM

CS(=O)(=O)Cc1cccc(=S)n1O
inhibition [1]: 93%
inhibition [3]: 90%
inhibition [2]: > 90%

Cc1c(OCc2ccccc2)c(=O)ccn1CCCC(=O)Nc1ccc(Cc2nc3ccccc3s2)cc1
IC50 (Acetylcholinesterase): 14.7 µM

Cc1c(OCc2ccccc2)c(=O)ccn1-c1ccc(CC(=O)Nc2ccc(-c3nc4ccccc4s3)cc2)cc1
IC50 (Acetylcholinesterase): 14.7 µM
inhibition [17]: 68%
Activity (SH-SY5Y): 100%

Cc1occ(O)c(=S)c1C(=O)NCc1ccc(-c2ccccc2)cc1
inhibition [18]: 54%

O=C(O)c1c[nH]c2ccccc2c1=S
inhibition [1]: 93%

CCCNC(=O)CCC(=O)NCc1c(O)c(=O)cc(C)n1C
inhibition (Glycine max): 10%

Cc1c(O)c(=O)ccn1C
inhibition ([11]; concentration not given here): 2%
inhibition (Glycine max): 70%

Cc1c(O)c(=O)ccn1CCCC(=O)N1CCCC1c1nc2ccccc2s1 (stereo not given)
EC50 [19]: 247 µM

O=C(NCc1ccc(-c2ccccc2)cc1)c1cccc(=O)n1O
IC50 (Interstitial collagenase): 25 µM
IC50 (Matrilysin): 25 µM
IC50 [6]: 25 µM
IC50 (Collagenase 3): 4 µM
IC50 (Neutrophil collagenase [7]): 0.018 µM
Activity (Rattus norvegicus [20]): 80%
Activity (Rattus norvegicus [21]): 23%
Activity (Rattus norvegicus [22]): 22%
Activity (Rattus norvegicus [23]): 25%
Activity (Rattus norvegicus [24]): 60%

Cc1cc(=S)c(O)c(C(=O)NCc2ccc(-c3ccccc3)cc2)o1
IC50 (Lethal factor): 13.9 µM

Cc1c(O)c(=S)ccn1Cc1ccc(-c2ccccc2)cc1
IC50 [25]: 1 µM
IC50 (Stromelysin-1 [26]): 4 µM
IC50 [27]: 2 µM
IC50 (Lethal factor): 3 µM

[O-][n+]1ccccc1S [PYRITHIONE]
IC50 (Stromelysin-1 [28]): 35 µM
IC50 (Stromelysin-1 [29]): 20 µM

Cc1occ(O)c(=O)c1C(=O)NCc1ccc(-c2ccccc2)cc1
inhibition [30]: 21%
inhibition (Stromelysin-1 [31]): 21%

[O-][n+]1ccccc1S
IC50 [14]: 0.908 µM
Ki [14]: 0.217 µM

Cc1cc(=O)c(O)c(CO)n1CCCn1cc(COc2cc3ccccc3oc2=O)nn1
IC50 [16]: 0.86 µM

CCCCCCCCn1ccc(=O)c(O)c1C
inhibition (Glycine max): 40%

On1cc2ccccc2cc1=S
inhibition [2]: > 90%

CCCCCCO/N=C/c1cc(=O)c(O)c[nH]1
IC50 (Mushroom tyrosinase [4]): 2.04 µM
IC50 (Mushroom tyrosinase [5]): 13.89 µM
Ki (Mushroom tyrosinase [10]): 24.84 µM
Kis [11]: 18.1 µM
Ki (Mushroom tyrosinase [12]): 24.84 µM
Kis [13]: 18.1 µM

Cn1ccc(=O)c(O)c1C(=O)NCc1ccc(-c2ccccc2)cc1
IC50 (Interstitial collagenase): 25 µM
IC50 (Matrilysin): 25 µM
IC50 [6]: 25 µM
IC50 (Collagenase 3): 4 µM
IC50 (Neutrophil collagenase [7]): 1.2 µM

On1ccc2ccccc2c1=S
inhibition [1]: 93%
inhibition [3]: 90%

Cc1cc(=O)c(O)c(C(=O)NCc2ccc(-c3ccccc3)cc2)o1
IC50 (Interstitial collagenase): 25 µM
IC50 (Matrilysin): 25 µM
IC50 [6]: 25 µM
IC50 (Collagenase 3): 4 µM
IC50 (Neutrophil collagenase [7]): 0.018 µM
IC50 [8]: 0.018 µM

Cc1occc(=O)c1O[C@@H]1O[C@H](CO)[C@@H](O)[C@H](O)[C@H]1O
inhibition (Neutrophil collagenase [32]): 33%
inhibition [33]: 73%
